Here are results for eleven molecules from publication PMC4671956, “Exploiting Transient Protein States for the Design of Small-Molecule Stabilizers of Mutant p53” (Structure(London, England:1993), 2015).

For experiment [1], the target named is T1, p53 Y220C mutant (Homo sapiens, UniProt P04637, M133L/N239Y/N268D/V203A/Y220C). On the set-up: method as in Boeckler et al., 2008. The settings on record: ref Boeckler et al., 2008; cited from earlier work.
In experiment [2] the target is T1, p53 Y220C mutant. More on the design: method as in Boeckler et al., 2008. The settings on record: ref Boeckler et al., 2008; cited from earlier work. This is another data set of the same source.
The target of experiment [3] is T1, p53 Y220C mutant. The experiment can be described thus: Dissociation constant by nuclear magnetic resonance spectroscopy (NMR). The format is binding. Here is the method: (§1) Dissociation constants for the binding of ligands to the p53 Y220C mutant were determined by either nuclear magnetic resonance spectroscopy or isothermal calorimetry as described by [Wilcken et al. (2012a)].

Experiment [4] concerns cancer cell lines expressing the Y220C mutant. On the set-up: method as in Liu et al., 2013. The settings on record: ref Liu et al., 2013; cited from earlier work.
The target in experiment [5] is T1, p53 Y220C mutant. Put plainly: Dissociation constant by isothermal calorimetry (ITC). The class given is binding. Here is the method: as §1
On the technique in general: Isothermal titration calorimetry measures the heat released or taken up as one component is titrated into another.

Setting [6] is: NMR, p53-Y220C ligand complex, read-out: KD.

Structures are written as SMILES. Some results are limits rather than exact numbers.

Consider `CCn1c2ccccc2c2cc(CNC)ccc21` [Compound 1, PhiKan083], for which, on p53 Y220C mutant [1], the “effect on melting temperature of the protein” value was “raises the melting temperature of the protein”. Further, the “effect on rate of aggregation” value on p53 Y220C mutant [2] was “slows down its rate of aggregation”.

A word on the Kd: it is the equilibrium constant for the complex coming apart. Turning to `Nc1ccc(C(F)(F)F)cc1N` [Compound 8], the equilibrium dissociation constant (Kd) on p53 Y220C mutant [3] (setting [6]) is > 10 mM. Turning to `CCc1cc(Br)cc2c(CCN)c(C)[nH]c12` [Compound 6], the Kd at p53 Y220C mutant [3] is 0.94 ± 0.11 mM. Take `CCc1cccc2c(C3CCNCC3)c[nH]c12` [Compound 2]: the Kd on p53 Y220C mutant [3] (setting [6]) stood at 0.47 ± 0.09 mM. In the case of `O=C(O)c1cc(I)cc(I)c1O` [Compound 4], the “ligand efficiency [LE]” value on p53 Y220C mutant [3] (from KD = 820 μM (NMR)) is 0.35 kcal/mol per non-hydrogen atom. Regarding `Cn1cc(-c2ccccc2)c(-n2cccc2)n1` [PhiKan7088], in experiment [4], the “biological activity in cancer cell lines” value was “biologically active”. Regarding `CN(C)CCn1cc(-c2ccc(F)cc2)c(-n2cccc2)n1` [Compound 7, PhiKan7242], the dissociation constant (Kd) on p53 Y220C mutant [3] (setting [6]) was 2.4 mM. The molecule `O=C(O)c1cc(I)c(-n2cccc2)c(I)c1O` [Compound 9] returned a Kd on p53 Y220C mutant [5] (ITC, p53-Y220C ligand complex) of 21 µM. For the same molecule, the increase in affinity on p53 Y220C mutant [5] (compound 9 relative to scaffold 4 without pyrrole) turned out to be 40 fold. For the same molecule, on p53 Y220C mutant [5] (from KD = 21 μM (ITC)), the “ligand efficiency [LE]” value is reported as 0.38 kcal/mol per non-hydrogen atom. In the case of `O=C(Nc1ccc(Cl)cc1O)C1CCNCC1` [Compound 12], the Kd at p53 Y220C mutant [3] (setting [6]) was determined as 1.27 mM. Same read-out and setting: for `Nc1cc(C(F)(F)F)cc(Br)c1N` [Compound 11] the value was 4.8 mM; for `c1ccn(-c2oc(C3CC3)nc2-c2nnn[nH]2)c1` [Compound 10], > 2 mM.
